The assay addresses T1, TRAP1 enzyme (Homo sapiens, UniProt Q12931).
T1 sequence (Q12931 60-704): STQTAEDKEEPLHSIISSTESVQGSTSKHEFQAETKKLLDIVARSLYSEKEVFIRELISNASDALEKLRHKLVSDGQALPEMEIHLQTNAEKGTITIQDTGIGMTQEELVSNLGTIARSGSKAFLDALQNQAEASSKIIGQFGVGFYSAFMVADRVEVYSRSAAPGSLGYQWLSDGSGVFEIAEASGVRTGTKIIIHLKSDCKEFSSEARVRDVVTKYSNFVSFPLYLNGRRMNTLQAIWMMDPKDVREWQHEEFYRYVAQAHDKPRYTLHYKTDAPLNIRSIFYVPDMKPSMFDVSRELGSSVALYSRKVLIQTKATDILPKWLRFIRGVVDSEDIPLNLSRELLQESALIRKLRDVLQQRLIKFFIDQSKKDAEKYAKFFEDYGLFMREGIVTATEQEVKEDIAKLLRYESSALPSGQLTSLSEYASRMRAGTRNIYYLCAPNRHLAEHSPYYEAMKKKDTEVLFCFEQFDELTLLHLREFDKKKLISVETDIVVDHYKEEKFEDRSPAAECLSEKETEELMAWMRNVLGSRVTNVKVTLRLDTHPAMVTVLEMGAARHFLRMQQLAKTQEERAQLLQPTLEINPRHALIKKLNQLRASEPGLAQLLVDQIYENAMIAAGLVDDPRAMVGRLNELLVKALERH
The assay can be described thus: ADP Glo assay of TRAP1 ATPase activity. Type of assay: biochemical. The following applies: for EC50: TRAP1 ATPase activation, 150 nM Trap1, 20 μM ATP, geometric mean, read-out: ADP GLO DRC: GeoMean EC50; for Emax: read-out: ADP GLO DRC: Mean Emax. As for the experimental part:
Potency of test compounds to modulate the ATPase activity of TRAP1 enzyme was evaluated using ADP Glo assay. The assay is based on quantification of the ADP generated from ATP in the ATPase reaction. The assay is performed in two steps: first, after the ATPase reaction, an equal volume of ADP-Glo™ Reagent is added to terminate the ATPase reaction and deplete the remaining ATP. Second, the Kinase Detection Reagent is added to simultaneously convert ADP to ATP and allow the newly synthesized ATP to be measured using a luciferase/luciferin reaction.
All the assays were carried out in a 384-well Proxiplate. The buffer used was 25 mM Pipes pH-7.5, 40 mM KCl, 0.05 mM MgCl2, 0.025% BSA, 0.316 mM EGTA, 0.003% Empigen, 0.01% Igepal. 150 nM Trap1 enzyme was incubated with various concentrations of the test compound (0.79 μM-100 μM) at 37° C. for 30 mins (except in blank wells). 20 μM ATP was added to each well to start the reaction. The plate was spun for 1 min at 1200 rpm and then incubated at 37° C. for 60 mins. 5 μl of ADP Glo reagent was added to all the wells and spun the plate for 1 min at 1200 rpm and kept it on a shaker at ambient temperature for 60 mins. 10 μl of kinase detection mix was added to all the wells and the plate was read for Luminescence at 495 nm. The amount of ADP released was estimated from ATP/ADP standard curve generated at the same experimental conditions. Emax (Maximal percent activation) and EC50 (concentration for half maximal activation) were estimated by fitting the dose response data to a sigmoidal curve fitting equation using Graphpad Prism software V. 8.
(ADP-Glo turns the ADP formed in a reaction into a luminescent signal.)

Where only a bound is given, the exact number is not on record here.

Take `COc1ccc(NC(=O)c2cnc3ccoc3c2)cc1S(=O)(=O)Nc1c(C)cccc1C` [Compound 1064]: the EC50 fell in the range of 20 to 100 µM and the Emax was in the range of 200 to 300%.

For the compound `COc1ccc(NC(=O)c2cccc(OC3CCOCC3)n2)cc1S(=O)(=O)Nc1c(C)cccc1C` [Compound 1154], the 50% effective concentration (EC50) lay within 20 to 100 µM and the Emax was 200 to 300%.

With `COc1ccc(NC(=O)c2cccc(-n3ccnc3)c2)cc1S(=O)(=O)Nc1c(C)cccc1C` [Compound 1232], the EC50 was 10 to 20 µM and the Emax lay in the range of 200 to 300%.

Take `COc1ccc(NC(=O)c2cnc(OC)c(C(F)(F)F)c2)cc1S(=O)(=O)Nc1c(C)cccc1C` [Compound 1073]: the EC50 is under 10 µM and the Emax was in the range of 123 to 159%.

Turning to `Cc1c(Br)cncc1C(=O)Nc1ccc(F)c(S(=O)(=O)Nc2ccc(Cl)cc2)c1` [Compound 826], the EC50 fell in the range of 20 to 100 µM and the Emax was 200 to 300%.

Turning to `COc1ccc(NC(=O)c2cccc(-c3cccnc3)c2)cc1S(=O)(=O)Nc1c(C)cccc1C` [Compound 1225], the EC50 is under 10 µM and the Emax fell in the range of 200 to 300%.

Turning to `COc1ccc(NC(=O)c2c(C)cc(Cl)nc2Cl)cc1S(=O)(=O)Nc1c(C)cccc1C` [Compound 1037], the EC50 was in the range of 20 to 100 µM and the Emax lay in the range of 160 to 199%.

As to `COc1ccc(NC(=O)c2c(C)noc2-c2ccccc2)cc1S(=O)(=O)Nc1c(C)cccc1C` [Compound 1244], the EC50 was in the range of 10 to 20 µM and the Emax fell in the range of 123 to 159%.

Turning to `COc1ccc(NC(=O)c2ccc3c(c2)CCCO3)cc1S(=O)(=O)Nc1c(C)cccc1C` [Compound 1121], the EC50 is under 10 µM and the Emax fell in the range of 160 to 199%.

Consider `COc1ccc(NC(=O)c2c[nH]c(-c3c(F)cccc3F)n2)cc1S(=O)(=O)Nc1ccc(Br)cc1` [Compound 1328], for which the EC50 is under 10 µM and the Emax is 160 to 199%.

Take `COc1ccc(NC(=O)c2cc3ccccc3[n+](C)c2)cc1S(=O)(=O)Nc1c(C)cccc1C` [Compound 1356, 3-((3-(N-(2,6-dimethylphenyl)sulfamoyl)-4-methoxyphenyl)carbamoyl)-1-methylquinolin-1-ium]: the EC50 lay within 20 to 100 µM and the Emax was 160 to 199%.

Consider `COc1ccc(NC(=O)c2cccc([C@H](F)c3cccc(F)c3)c2)cc1S(=O)(=O)Nc1c(C)cccc1C` [Compound 1034], for which the EC50 was under 10 µM and the Emax is 160 to 199%.

Consider `COc1ccc(NC(=O)c2ccc(N3CCCC3)c(F)c2)cc1S(=O)(=O)Nc1c(C)cccc1C` [Compound 1004], for which the EC50 is under 10 µM and the Emax was 160 to 199%.

As for `COc1ccc(NC(=O)c2ncn(Cc3ccccc3)n2)cc1S(=O)(=O)Nc1c(C)cccc1C` [Compound 1029], the EC50 fell in the range of 10 to 20 µM and the Emax is over 300%.

`CCOc1c(F)c(F)cc(C(=O)Nc2ccc(OC)c(S(=O)(=O)Nc3c(C)cccc3C)c2)c1F` [Compound 1145]: the EC50 was under 10 µM and the Emax was 123 to 159%.

Take `CCOc1ccsc1C(=O)Nc1ccc(F)c(S(=O)(=O)Nc2ccc(Cl)cc2)c1` [Compound 765]: the EC50 fell in the range of 20 to 100 µM and the Emax lay within 123 to 159%.

`COc1ccc(NC(=O)c2cn(C(C)(C)C)nn2)cc1S(=O)(=O)Nc1c(C)cccc1C` [Compound 1050]: the EC50 lay within 20 to 100 µM and the maximal effect (Emax) lay in the range of 160 to 199%.

With `COc1ccc(NC(=O)c2nccs2)cc1S(=O)(=O)Nc1c(C)cccc1C` [Compound 1171], the EC50 was in the range of 20 to 100 µM and the Emax was in the range of 160 to 199%.

Regarding `COc1ccc(NC(=O)c2cnn(-c3cccnc3)c2)cc1S(=O)(=O)Nc1c(C)cccc1C` [Compound 1106], the EC50 lay within 10 to 20 µM and the Emax fell in the range of 200 to 300%.

`Cc1nc2cc(C(=O)Nc3ccc(F)c(S(=O)(=O)Nc4ccc(Cl)cc4)c3)ccc2n1-c1ccccc1` [Compound 735]: the EC50 was under 10 µM and the Emax fell in the range of 123 to 159%.

Regarding `O=C(Nc1ccc(F)c(S(=O)(=O)Nc2ccc(Cl)cc2)c1)c1cccc(-n2cncn2)c1` [Compound 1220], the EC50 was 20 to 100 µM and the Emax is 123 to 159%.

As usually defined, the EC50 is the midpoint of the concentration-response curve. The term Emax denotes the size of the effect at its maximum, as opposed to the concentration needed.

The values above are taken from patent US20230174523A1, “BENZENESULFONAMIDE DERIVATIVES AS TRAP1 MODULATORS AND USES THEREOF” (Amathus Therapeutics, Inc., priority 2020, published 2023).
